Assay results: US20050234113A1, “Antioxidant and radical scavenging activity of synthetic analogs of desferrithiocin” (University of Florida Research Foundation, Inc., priority 2002, published 2005)

Tests used:
[1] = system: Myeloperoxidase (MPO) activity in colonic tissue; assay: Myeloperoxidase (MPO) assay in colonic tissue of rats with acetic acid-induced colitis; format: in vivo; conditions: 650 μmol kg^−1 intracolonically 30 min before 4% acetic acid, mean ± standard deviation
Experimental: (§1) The ligands were administered to the rats intracolonically as a suspension or solution in distilled water (2 mL) at a dose of 650 μmol kg^−1. The drug solutions were made fresh for each experiment. ROWASA®, the pharmaceutical preparation which contains 5-ASA (2 mL, 66.7 mg mL^−1) was given at a dose of 2318 μmol kg^−1. Control rats received distilled water (2 mL), administered intracolonically.
(§2) Animal care and experimental procedures were approved by the Institutional Animal Care and Use Committee. Colitis was induced by a modification of published methods. Briefly, the rats were anesthetized with sodium pentobarbital, 55 mg kg^−1 intraperitoneally. The abdomen was shaved and prepared for surgery. A midline incision was made, and the cecum and proximal colon were exteriorized. A reversible suture was placed at the junction of the cecum and proximal colon. The colon was rinsed with saline (10 mL), and the fluid and intestinal contents were gently expressed out the rectum. A gum-based rectal plug was inserted. The compound of interest, or distilled water in the control animals (2 mL), was injected intracolonically just distal to the ligature. The cecum and proximal colon were returned to the abdominal cavity; the compound was allowed to remain in the gut for 30 min. Then, the cecum and proximal colon were reexteriorized. The rectal plug was removed, and the drug was gently expressed out of the colon. Acetic acid (4%, 2 mL) was injected into the proximal colon over a 15-20-second time period. The acid was allowed to remain in the gut until one minute had passed (i.e., 40-45 seconds after the end of the acid administration). The no acid control rats received distilled water (2 mL), which was administered in the same manner as was the acetic acid. Air (10 mL) was then injected into the proximal colon to expel the acid or water. The cecal/proximal colon ligature was removed, the gut was returned to the abdominal cavity, and the incisions were closed. The animals were allowed to recover overnight and were sacrificed 24 hr later. The entire length of the colon was removed and assessed for damage both densitometrically and biochemically.
The activity of MPO was measured in colonic tissue by a modification of the method of Krawisz et al. in Gastroenterology 87, 1344-1350 (1984). Each excised colon was homogenized in 9 volumes of homogenization buffer (0.5% hexadecyltrimethylammonium bromide (HDTMA) in 50 mM sodium acetate, pH 6.0); this homogenate was centrifuged at 1200 g for 20 min at 4° C. A sample of the supernatant (1.8 mL) was transferred into a microcentrifuge tube and stored frozen at −20° C. for up to one week. Prior to assay, the thawed aliquot was centrifuged at about 10,000 g for 15 minutes at 4° C. The final supernatant (33 μL) was added to a solution of o-dianisidine HCl (0.17 mg mL^−1 in 50 mM sodium acetate, pH 6.0, made fresh daily and filtered immediately before use) (950 μL), the mixture was vortexed, and the peroxidase reaction was initiated by the addition of H2O2 to 50 mM sodium acetate, pH 6.0, made fresh daily (16.7 μL). The A470 at room temperature (ca. 23° C.) was read at 15-second intervals for 2 min. The rates were assessed graphically and are presented as change in milliabsorbance units (ΔmAU)/min per g tissue. Under these conditions, 0.1 “Unit” of purified human leukocyte myeloperoxidase (Sigma M-6908) produced a ΔA470 of about 400 mAU/min.
The biochemical measurement involves measuring the level of MPO in a sample of homogenate of the whole rat colon. When the colon is damaged by the acetic acid, there is an extravasation of neutrophils. The extent of this infiltration can serve as a quantitative marker for tissue damage. Although other leukocytes, such as eosinophils and monocytes, also contribute to the inflammatory response, their contribution is small; the majority of the cells recruited during the acute inflammatory response are neutrophils. […]

[2] = system: acetic acid-induced colitis; assay: Acetic acid-induced colitis in rats, densitometric image analysis of colonic damage; format: in vivo; conditions: for Damage (%): 650 μmol kg^−1 intracolonically 30 min before 4% acetic acid, mean ± standard deviation
Experimental: as §1, §2
Gross damage was quantitated using Photoshop-based image analysis (version 5.0, Adobe Systems, Mountain View, Calif., USA) on an Apple iMac computer. The Magic Wand tool in the Select menu of Photoshop was used to place the cursor on an area of obvious damage. The tolerance level of the Magic Wand tool was set at 30. The damaged areas were automatically selected by using the Similar command in the Select menu. Then, the Eyedropper tool was used to determine the range of the damage in the highlighted areas. Individual colon images were copied to a blank Photoshop page. The Magic Wand tool, with a tolerance set to 100, was used to select all of the pixels in the colon sample. Then, the Histogram tool, which generates a graph in which each vertical line represents the number of pixels associated with a brightness level, was selected in the Image menu. The Red channel was then selected; the darker (damaged areas) appear on the left side of the histogram and the lighter (normal) areas are on the right side. The cursor was then placed on the histogram, the color range determined in an earlier step was selected, and the number of pixels encompassing that range and the percent damage were quantified automatically.
Two means were employed to assess the damage to the colon in the presence and absence of ligand, computer-based image analysis and colonic MPO measurement. The densitometric method removes much of the subjectivity involved in the simple scoring approaches. A digital image of the prepared colonic tissue is taken, and a clearly damaged segment is highlighted on the screen. Once the computer identifies all other segments of the intestine with the same or greater damage, a pixel number is generated; this number makes it possible to calculate the percentage of damaged intestine.

CC(=O)N(O)CCCCCNC(=O)CCC(=O)N(O)CCCCCNC(=O)CCC(=O)N(O)CCCCCN [DFO, Desferrioxamine B, reference compound]
MPO activity [1]: 20049 ± 17314 mAU min^−1g of colonic tissue^−1 | Damage (%) [2]: 39 ± 15%

O=C(O)[C@H]1CSC(c2ccc(O)cc2O)=N1 [4′-(HO)-DADMDFT, 4′-hydroxydesazadesmethyldesferrithiocin]
MPO activity [1]: 56466 ± 52617 mAU min^−1g of colonic tissue^−1 | Damage (%) [2]: 57 ± 15% | protection against acetic acid-induced colonic damage (in words) ([2]; intracolonic, image analysis and MPO assay): ineffective
